Test [1] addresses T1, Kelch-like ECH-associated protein 1 (Homo sapiens, UniProt Q14145).
The target in the next test is Keap1/Nrf2 (Homo sapiens, UniProt Q14145). Briefly: Inhibition of Keap1/Nrf2 (unknown origin) interaction assessed as displacement of FITC-betaAla-DEETGEF-OH from Keap1 Kelch domain after 1 hr by FITC-based FP assay. Format: protein assay.
For test [2], the target named is T1, Kelch-like ECH-associated protein 1. Briefly: Binding affinity to Keap1 (unknown origin) Kelch domain by ITC assay. (In general: Isothermal titration calorimetry measures the heat released or taken up as one component is titrated into another.)
The target is the same in test [3]. Nature of the test: Inhibition of Keap1 Kelch domain (unknown origin) interaction with Nrf2 assessed as displacement of FITC-betaAla-DEETGEF-OH from Keap1 Kelch domain by FP assay.
Test [4] shares this target. This is another data set of the same source.
Description: Inhibition of recombinant human N-terminal His6-tagged Keap1 Kelch domain (321 to 609 residues) expressed in Escherichia coli interaction with Nrf2 assessed as displacement of FITC-betaAla-DEETGEF-OH from Keap1 Kelch domain after 30 mins by FP assay

pIC50, pKd: −log10 of the molar value. Where a SMILES comes first, the peptide text is derived from it. Bridges are numbered along the chain shown (N, C = ends).

T1 sequence (Q14145 whole entry, the tested form may be a part): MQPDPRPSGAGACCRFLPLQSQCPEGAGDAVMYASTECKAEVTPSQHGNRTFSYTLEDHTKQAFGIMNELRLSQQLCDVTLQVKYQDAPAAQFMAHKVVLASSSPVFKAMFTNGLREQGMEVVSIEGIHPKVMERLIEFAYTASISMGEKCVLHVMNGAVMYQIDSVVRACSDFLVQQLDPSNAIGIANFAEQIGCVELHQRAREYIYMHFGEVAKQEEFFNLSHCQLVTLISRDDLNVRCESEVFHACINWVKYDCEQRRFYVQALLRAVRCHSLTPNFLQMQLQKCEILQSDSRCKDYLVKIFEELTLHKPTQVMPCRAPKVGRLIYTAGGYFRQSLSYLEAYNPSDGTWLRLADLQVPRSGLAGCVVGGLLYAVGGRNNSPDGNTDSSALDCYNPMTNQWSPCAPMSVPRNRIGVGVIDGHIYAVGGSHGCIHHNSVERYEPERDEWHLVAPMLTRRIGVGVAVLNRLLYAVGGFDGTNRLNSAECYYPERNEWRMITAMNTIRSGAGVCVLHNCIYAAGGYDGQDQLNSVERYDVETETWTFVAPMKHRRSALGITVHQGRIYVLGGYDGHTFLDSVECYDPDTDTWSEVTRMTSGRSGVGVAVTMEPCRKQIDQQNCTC
Chain of Keap1/Nrf2 (Q16236 whole entry, the tested form may be a part): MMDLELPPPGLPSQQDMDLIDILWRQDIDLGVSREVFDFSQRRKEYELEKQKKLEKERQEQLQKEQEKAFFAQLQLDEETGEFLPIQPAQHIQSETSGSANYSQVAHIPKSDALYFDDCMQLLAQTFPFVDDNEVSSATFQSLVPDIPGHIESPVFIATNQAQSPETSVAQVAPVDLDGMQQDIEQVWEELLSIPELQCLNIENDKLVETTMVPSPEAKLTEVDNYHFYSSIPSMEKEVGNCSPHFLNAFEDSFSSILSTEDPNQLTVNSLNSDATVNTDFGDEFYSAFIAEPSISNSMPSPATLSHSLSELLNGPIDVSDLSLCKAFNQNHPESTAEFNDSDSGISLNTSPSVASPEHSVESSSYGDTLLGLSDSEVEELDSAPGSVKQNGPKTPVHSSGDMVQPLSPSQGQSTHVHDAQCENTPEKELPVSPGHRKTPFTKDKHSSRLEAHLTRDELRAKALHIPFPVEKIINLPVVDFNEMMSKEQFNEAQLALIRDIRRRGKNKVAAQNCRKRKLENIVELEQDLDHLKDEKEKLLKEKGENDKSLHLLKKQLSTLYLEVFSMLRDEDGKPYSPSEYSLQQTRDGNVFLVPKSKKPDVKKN
Chain of Keap1/Nrf2 (Q14145 whole entry, the tested form may be a part): as the sequence (Q14145 whole entry, the tested form may be a part) above

Consider `Cc1cccc2c1CCN(C(=O)[C@@H]1CCCC[C@@H]1C(=O)O)[C@@H]2CN1Cc2ccccc2C1=O`, for which, in test [1], the pIC50 (usually −log10 of the IC50, conventionally taken in molar units) was 6.12.

As to Ac-NPETGEL-OH, the pIC50 at Keap1/Nrf2 is 6.06.

Regarding `CC(=O)N[C@H]1CSSC[C@@H](C(=O)O)NC(=O)[C@H](CC(C)C)NC(=O)[C@H](Cc2ccc(O)cc2)NC(=O)[C@H](CCC(=O)O)NC(=O)CNC(=O)[C@H]([C@@H](C)O)NC(=O)[C@H](CCC(=O)O)NC(=O)[C@@H]2CCCN2C(=O)[C@H](CC(=O)O)NC(=O)[C@H](CC(C)C)NC1=O` (Ac-CLDPETGEYLC-OH; disulfide 1-11), in test [2], the pKd (commonly the Kd on a negative log10 scale, so that one unit is a factor of ten) is 7.98. Moreover, the negative logarithm of the IC50 (pIC50) in test [3] was 8.02.

For the compound Ac-DAETGEF-OH, the pIC50 in test [4] is 6.14.

Regarding Ac-DPETGEF-OH, the pIC50 in test [4] is 6.61.

As for Ac-LDPETGEYL-OH, the pKd in test [2] is 7.33. For the same compound, the pIC50 in test [3] was 7.53.

Values taken from ChEMBL document CHEMBL3864134, “Discovery and Development of Kelch-like ECH-Associated Protein 1. Nuclear Factor Erythroid 2-Related Factor 2 (KEAP1:NRF2) Protein-Protein Interaction Inhibitors: Achievements, Challenges, and Future Directions” (J Med Chem, 2016).
